According to the CheMixHub viscosity set:

Assay: xn = mol fraction of the nth substance listed

NC=O + CCO
Conditions | viscosity [mPa·s]
293.15 K, 101 kPa, x1 = 0.0698 | 1.251
298.15 K, 100 kPa, x1 = 0.08099 | 1.17
298.15 K, 100 kPa, x1 = 0.141 | 1.24
298.15 K, 100 kPa, x1 = 0.1644 | 1.27
298.15 K, 100 kPa, x1 = 0.2196 | 1.37
298.15 K, 100 kPa, x1 = 0.25 | 1.43
298.15 K, 100 kPa, x1 = 0.2924 | 1.5
298.15 K, 100 kPa, x1 = 0.3698 | 1.66
298.15 K, 100 kPa, x1 = 0.4031 | 1.73
298.15 K, 100 kPa, x1 = 0.4124 | 1.74
298.15 K, 100 kPa, x1 = 0.5124 | 1.98
298.15 K, 100 kPa, x1 = 0.5644 | 2.11
298.15 K, 100 kPa, x1 = 0.6278 | 2.29
298.15 K, 100 kPa, x1 = 0.7077 | 2.5
298.15 K, 100 kPa, x1 = 0.7726 | 2.67
298.15 K, 100 kPa, x1 = 0.8608 | 2.91
298.15 K, 100 kPa, x1 = 0.9558 | 3.19
298.15 K, 101 kPa, x1 = 0.0698 | 1.152
298.15 K, 101 kPa, x1 = 0.1005 | 1.229
298.15 K, 101 kPa, x1 = 0.1991 | 1.376
298.15 K, 101 kPa, x1 = 0.3014 | 1.563
298.15 K, 101 kPa, x1 = 0.4071 | 1.816
298.15 K, 101 kPa, x1 = 0.4991 | 2.01
298.15 K, 101 kPa, x1 = 0.6093 | 2.259
298.15 K, 101 kPa, x1 = 0.7024 | 2.515
298.15 K, 101 kPa, x1 = 0.8108 | 2.782
298.15 K, 101 kPa, x1 = 0.9 | 3.054
303.15 K, 101 kPa, x1 = 0.0698 | 1.043
303.15 K, 101.3 kPa, x1 = 0.0716 | 0.97
303.15 K, 101.3 kPa, x1 = 0.1365 | 1.03
303.15 K, 101.3 kPa, x1 = 0.2357 | 1.1
303.15 K, 101.3 kPa, x1 = 0.3142 | 1.3
303.15 K, 101.3 kPa, x1 = 0.3842 | 1.4
303.15 K, 101.3 kPa, x1 = 0.4597 | 1.5
303.15 K, 101.3 kPa, x1 = 0.5389 | 1.6
303.15 K, 101.3 kPa, x1 = 0.609 | 1.8
303.15 K, 101.3 kPa, x1 = 0.6872 | 1.9
303.15 K, 101.3 kPa, x1 = 0.7741 | 2.1
303.15 K, 101.3 kPa, x1 = 0.7928 | 2.2
303.15 K, 101.3 kPa, x1 = 0.926 | 2.6
308.15 K, 101 kPa, x1 = 0.0698 | 0.9456
308.15 K, 101.3 kPa, x1 = 0.0716 | 0.89
308.15 K, 101.3 kPa, x1 = 0.1365 | 0.93
308.15 K, 101.3 kPa, x1 = 0.2357 | 1.05
308.15 K, 101.3 kPa, x1 = 0.3142 | 1.1
308.15 K, 101.3 kPa, x1 = 0.3842 | 1.2
308.15 K, 101.3 kPa, x1 = 0.4597 | 1.3
308.15 K, 101.3 kPa, x1 = 0.5389 | 1.5
308.15 K, 101.3 kPa, x1 = 0.609 | 1.5
308.15 K, 101.3 kPa, x1 = 0.6872 | 1.7
308.15 K, 101.3 kPa, x1 = 0.7741 | 1.8
308.15 K, 101.3 kPa, x1 = 0.7928 | 1.9
308.15 K, 101.3 kPa, x1 = 0.926 | 2.3
313.15 K, 101 kPa, x1 = 0.0698 | 0.8712
313.15 K, 101 kPa, x1 = 0.1005 | 0.916
313.15 K, 101 kPa, x1 = 0.1991 | 1.016
313.15 K, 101 kPa, x1 = 0.3014 | 1.145
313.15 K, 101 kPa, x1 = 0.4071 | 1.319
313.15 K, 101 kPa, x1 = 0.4991 | 1.465
313.15 K, 101 kPa, x1 = 0.6093 | 1.622
313.15 K, 101 kPa, x1 = 0.7024 | 1.8
313.15 K, 101 kPa, x1 = 0.8108 | 1.986
313.15 K, 101 kPa, x1 = 0.9 | 2.174
313.15 K, 101.3 kPa, x1 = 0.0716 | 0.8
313.15 K, 101.3 kPa, x1 = 0.1365 | 0.85
313.15 K, 101.3 kPa, x1 = 0.2357 | 0.95
313.15 K, 101.3 kPa, x1 = 0.3142 | 1.04
313.15 K, 101.3 kPa, x1 = 0.3842 | 1.1
313.15 K, 101.3 kPa, x1 = 0.4597 | 1.2
313.15 K, 101.3 kPa, x1 = 0.5389 | 1.3
313.15 K, 101.3 kPa, x1 = 0.609 | 1.4
313.15 K, 101.3 kPa, x1 = 0.6872 | 1.5
313.15 K, 101.3 kPa, x1 = 0.7741 | 1.7
313.15 K, 101.3 kPa, x1 = 0.7928 | 1.7
313.15 K, 101.3 kPa, x1 = 0.926 | 2
318.15 K, 101 kPa, x1 = 0.0698 | 0.8052
318.15 K, 101.3 kPa, x1 = 0.0716 | 0.73
318.15 K, 101.3 kPa, x1 = 0.1365 | 0.77
318.15 K, 101.3 kPa, x1 = 0.2357 | 0.86
318.15 K, 101.3 kPa, x1 = 0.3142 | 0.94
318.15 K, 101.3 kPa, x1 = 0.3842 | 1.02
318.15 K, 101.3 kPa, x1 = 0.4597 | 1.1
318.15 K, 101.3 kPa, x1 = 0.5389 | 1.2
318.15 K, 101.3 kPa, x1 = 0.609 | 1.2
318.15 K, 101.3 kPa, x1 = 0.6872 | 1.3
318.15 K, 101.3 kPa, x1 = 0.7741 | 1.5
318.15 K, 101.3 kPa, x1 = 0.7928 | 1.5
318.15 K, 101.3 kPa, x1 = 0.926 | 1.8
323.15 K, 101.3 kPa, x1 = 0.0716 | 0.64
323.15 K, 101.3 kPa, x1 = 0.1365 | 0.68
323.15 K, 101.3 kPa, x1 = 0.2357 | 0.75
323.15 K, 101.3 kPa, x1 = 0.3142 | 0.83
323.15 K, 101.3 kPa, x1 = 0.3842 | 0.89
323.15 K, 101.3 kPa, x1 = 0.4597 | 0.93
323.15 K, 101.3 kPa, x1 = 0.5389 | 0.98
323.15 K, 101.3 kPa, x1 = 0.609 | 1.04
323.15 K, 101.3 kPa, x1 = 0.6872 | 1.1
323.15 K, 101.3 kPa, x1 = 0.7741 | 1.2
323.15 K, 101.3 kPa, x1 = 0.7928 | 1.2
323.15 K, 101.3 kPa, x1 = 0.926 | 1.5
